{"source": "the supplement of paper PMC11208160", "data": [{"experiment": "recombinant barcode read abundance after kanamycin selection (control-corrected) (log10(CPM+1)); higher = more efficient recombination; sequences stand for … in AGTGCAGAGAAAATCGGCCAGTTTTCTCTGCCTGCAGTCCGCATGCCGT…AGATTTATGCAGCGGACTGCCTTTCTCCCAAAGTGATAAACCGGACAGTATCATGGACCGGTTTTCCCGGTAATCCGTATTTGCAAGGTTGGTTTCACT; site = the 11-nt target", "outline": "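For this pooled screen, each oligo contained a promoter, a target, a barcode and the J23119-driven first 104 bases of the bridge RNA. Gibson cloning placed it into a vector supplying the remaining 73 bp and a T7-inducible recombinase, and the pool was co-electroporated into E. coli with a donor plasmid. Recombination efficiency is derived from barcode counts per million at recombinant junctions after averaging and control correction, and is expressed on a log scale as log10(CPM+1), with selection on chloramphenicol/ampicillin/kanamycin plus 0.1 mM IPTG against a chloramphenicol/ampicillin LB agar control.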", "values": [{"sequence": "GCGTACCCTTGGGTTCTAACCTGTTGCCT (site GTGTACCCTAG)", "recombinant barcode read abundance (log10)": 0.0662}, {"sequence": "GCGTACTCTTGGGTTCTAACCTGTTGCCT (site GCGGACTCTTG)", "recombinant barcode read abundance (log10)": 0.0368}, {"sequence": "GCGTACTCTTGGGTTCTAACCTGTTGCCT (site GCGTACTCTAG)", "recombinant barcode read abundance (log10)": 2.02}, {"sequence": "GCGTCCACTTGGGTTCTAACCTGTTGCCT (site GCATCCACTAG)", "recombinant barcode read abundance (log10)": 0.398}, {"sequence": "GCGTCCACTTGGGTTCTAACCTGTTGCCT (site GCGTCCACTAG)", "recombinant barcode read abundance (log10)": 0.0111}, {"sequence": "GCGTGTACTTGGGTTCTAACCTGTTGCCT (site GCGGGTACTAG)", "recombinant barcode read abundance (log10)": 0.208}, {"sequence": "GCGTGTACTTGGGTTCTAACCTGTTGCCT (site GCGTGTACTAG)", "recombinant barcode read abundance (log10)": 0.948}, {"sequence": "GCTAAGTCTTGGGTTCTAACCTGTTGCGT (site GCGGAGTCTAC)", "recombinant barcode read abundance (log10)": 0.166}, {"sequence": "GCTAAGTCTTGGGTTCTAACCTGTTGCGT (site GCTAAGTCTAC)", "recombinant barcode read abundance (log10)": 2.61}, {"sequence": "GCTAGTCCTTGGGTTCTAACCTGTTGCGT (site GCTAGTCCTAC)", "recombinant barcode read abundance (log10)": 2.14}, {"sequence": "GCTAGTCCTTGGGTTCTAACCTGTTGCGT (site GCTAGTCCTCA)", "recombinant barcode read abundance (log10)": 0.0737}, {"sequence": "GCTATGTCTTGGGTTCTAACCTGTTGCCT (site GCTATGTCTAG)", "recombinant barcode read abundance (log10)": 1.42}, {"sequence": "GCTATGTCTTGGGTTCTAACCTGTTGCCT (site GGTATGTCTAA)", "recombinant barcode read abundance (log10)": 0.0851}, {"sequence": "GCTCAGTCTTGGGTTCTAACCTGTTGCCT (site GCTCAGACTAG)", "recombinant barcode read abundance (log10)": 0.00917}, {"sequence": "GCTCAGTCTTGGGTTCTAACCTGTTGCCT (site GCTCAGCCTAG)", "recombinant barcode read abundance (log10)": 0.645}, {"sequence": "GCTCAGTCTTGGGTTCTAACCTGTTGCCT (site GCTCAGGCTAG)", "recombinant barcode read abundance (log10)": 0.218}, {"sequence": "GCTCAGTCTTGGGTTCTAACCTGTTGCCT (site GCTCAGTCTAG)", "recombinant barcode read abundance (log10)": 1.78}, {"sequence": "GCTCATGCTTGGGTTCTAACCTGTTGCCT (site GCTCATGCTAG)", "recombinant barcode read abundance (log10)": 1.92}, {"sequence": "GCTCATGCTTGGGTTCTAACCTGTTGCCT (site GCTCATTCTAG)", "recombinant barcode read abundance (log10)": 0.132}, {"sequence": "GCTCATTCTTGGGTTCTAACCTGTTGCCT (site GCTCATGCTAG)", "recombinant barcode read abundance (log10)": 0}, {"sequence": "GCTCATTCTTGGGTTCTAACCTGTTGCCT (site GCTCATTCTAG)", "recombinant barcode read abundance (log10)": 0.557}, {"sequence": "GCTCCATCTTGGGTTCTAACCTGTTGCCT (site GATCCATCTAG)", "recombinant barcode read abundance (log10)": 0.0768}, {"sequence": "GCTCCATCTTGGGTTCTAACCTGTTGCCT (site GCTCCATCTAG)", "recombinant barcode read abundance (log10)": 0.941}, {"sequence": "GCTCCATCTTGGGTTCTAACCTGTTGCCT (site GGTCCATCTAG)", "recombinant barcode read abundance (log10)": 0.122}, {"sequence": "GCTCCATCTTGGGTTCTAACCTGTTGCCT (site GTTCCATCTAG)", "recombinant barcode read abundance (log10)": 0.291}, {"sequence": "GCTCCTCCTTGGGTTCTAACCTGTTGCAT (site ATAGAGTCTCG)", "recombinant barcode read abundance (log10)": 0.0486}, {"sequence": "GCTCCTCCTTGGGTTCTAACCTGTTGCAT (site GCTCCTCCTAT)", "recombinant barcode read abundance (log10)": 1.15}, {"sequence": "GCTCGAACTTGGGTTCTAACCTGTTGCCT (site GCACGAACTAG)", "recombinant barcode read abundance (log10)": 0.46}, {"sequence": "GCTCGAACTTGGGTTCTAACCTGTTGCCT (site GCCCGAACTAG)", "recombinant barcode read abundance (log10)": 0.138}, {"sequence": "GCTCGAACTTGGGTTCTAACCTGTTGCCT (site GCGCGAACTAG)", "recombinant barcode read abundance (log10)": 0.00752}, {"sequence": "GCTCGAACTTGGGTTCTAACCTGTTGCCT (site GCTCGAACTAG)", "recombinant barcode read abundance (log10)": 0.38}, {"sequence": "GCTCGTGCTTGGGTTCTAACCTGTTGCCT (site GCACGTGCTAG)", "recombinant barcode read abundance (log10)": 0.69}, {"sequence": "GCTCGTGCTTGGGTTCTAACCTGTTGCCT (site GCCCGTGCTAG)", "recombinant barcode read abundance (log10)": 0.278}, {"sequence": "GCTCGTGCTTGGGTTCTAACCTGTTGCCT (site GCGCGTGCTAG)", "recombinant barcode read abundance (log10)": 0.238}, {"sequence": "GCTCGTGCTTGGGTTCTAACCTGTTGCCT (site GCTCGTGCTAG)", "recombinant barcode read abundance (log10)": 1.1}, {"sequence": "GCTGAGGCTTGGGTTCTAACCTGTTGCCA (site CTCTGCTCTGA)", "recombinant barcode read abundance (log10)": 0.165}, {"sequence": "GCTGAGGCTTGGGTTCTAACCTGTTGCCA (site GCTGAGGCTTG)", "recombinant barcode read abundance (log10)": 0.636}, {"sequence": "GCTGAGTCTTGGGTTCTAACCTGTTGCTA (site AGGCCCACTAT)", "recombinant barcode read abundance (log10)": 0.0625}, {"sequence": "GCTGAGTCTTGGGTTCTAACCTGTTGCTA (site GCTGAGTCTTA)", "recombinant barcode read abundance (log10)": 2.08}, {"sequence": "GCTGCTCCTTGGGTTCTAACCTGTTGCGT (site GCGGGTCCTAC)", "recombinant barcode read abundance (log10)": 0.0749}, {"sequence": "GCTGCTCCTTGGGTTCTAACCTGTTGCGT (site GCTGCTCCTAC)", "recombinant barcode read abundance (log10)": 1.82}, {"sequence": "GCTGGGCCTTGGGTTCTAACCTGTTGCGA (site GATGGGCCTAC)", "recombinant barcode read abundance (log10)": 0.0848}, {"sequence": "GCTGGGCCTTGGGTTCTAACCTGTTGCGA (site GCTGGGCCTTC)", "recombinant barcode read abundance (log10)": 2.17}, {"sequence": "GCTGTATCTTGGGTTCTAACCTGTTGCCT (site ACTGTATCTAG)", "recombinant barcode read abundance (log10)": 0.288}, {"sequence": "GCTGTATCTTGGGTTCTAACCTGTTGCCT (site CCTGTATCTAG)", "recombinant barcode read abundance (log10)": 0.163}, {"sequence": "GCTGTATCTTGGGTTCTAACCTGTTGCCT (site GCTGTATCTAG)", "recombinant barcode read abundance (log10)": 0.612}, {"sequence": "GCTGTATCTTGGGTTCTAACCTGTTGCCT (site TCTGTATCTAG)", "recombinant barcode read abundance (log10)": 0.0648}, {"sequence": "GCTTCTTCTTGGGTTCTAACCTGTTGCCT (site GATTCTTCTAG)", "recombinant barcode read abundance (log10)": 0.398}, {"sequence": "GCTTCTTCTTGGGTTCTAACCTGTTGCCT (site GCTTCTTCTAG)", "recombinant barcode read abundance (log10)": 0.0876}, {"sequence": "GCTTCTTCTTGGGTTCTAACCTGTTGCCT (site GGTTCTTCTAG)", "recombinant barcode read abundance (log10)": 0.0632}, {"sequence": "GCTTCTTCTTGGGTTCTAACCTGTTGCCT (site GTTTCTTCTAG)", "recombinant barcode read abundance (log10)": 0.0974}, {"sequence": "GCTTGAGCTTGGGTTCTAACCTGTTGCCG (site CCTTGAGCTCA)", "recombinant barcode read abundance (log10)": 0.0954}, {"sequence": "GCTTGAGCTTGGGTTCTAACCTGTTGCCG (site GCTTGAGCTCG)", "recombinant barcode read abundance (log10)": 0.344}, {"sequence": "GCTTGAGCTTGGGTTCTAACCTGTTGCCT (site GCATGAGCTAG)", "recombinant barcode read abundance (log10)": 0.421}, {"sequence": "GCTTGAGCTTGGGTTCTAACCTGTTGCCT (site GCCTGAGCTAG)", "recombinant barcode read abundance (log10)": 0.158}, {"sequence": "GCTTGAGCTTGGGTTCTAACCTGTTGCCT (site GCGTGAGCTAG)", "recombinant barcode read abundance (log10)": 0.139}, {"sequence": "GCTTGAGCTTGGGTTCTAACCTGTTGCCT (site GCTTGAGCTAG)", "recombinant barcode read abundance (log10)": 0.589}, {"sequence": "GCTTGGACTTGGGTTCTAACCTGTTGCCT (site GCTTGGACTAG)", "recombinant barcode read abundance (log10)": 0.467}, {"sequence": "GCTTGGACTTGGGTTCTAACCTGTTGCCT (site GCTTTGACTAG)", "recombinant barcode read abundance (log10)": 0.0492}, {"sequence": "GCTTGTTCTTGGGTTCTAACCTGTTGCCT (site ACTTGTTCTAG)", "recombinant barcode read abundance (log10)": 0.0443}, {"sequence": "GCTTGTTCTTGGGTTCTAACCTGTTGCCT (site CCTTGTTCTAG)", "recombinant barcode read abundance (log10)": 0.501}, {"sequence": "GCTTGTTCTTGGGTTCTAACCTGTTGCCT (site GCTTGTTCTAG)", "recombinant barcode read abundance (log10)": 0.233}, {"sequence": "GCTTGTTCTTGGGTTCTAACCTGTTGCCT (site TCTTGTTCTAG)", "recombinant barcode read abundance (log10)": 0.11}, {"sequence": "GCTTTACCTTGGGTTCTAACCTGTTGCCT (site ACTTTACCTAG)", "recombinant barcode read abundance (log10)": 0.0836}, {"sequence": "GCTTTACCTTGGGTTCTAACCTGTTGCCT (site CCTTTACCTAG)", "recombinant barcode read abundance (log10)": 0.019}, {"sequence": "GCTTTACCTTGGGTTCTAACCTGTTGCCT (site GCTTTACCTAG)", "recombinant barcode read abundance (log10)": 0.456}, {"sequence": "GCTTTACCTTGGGTTCTAACCTGTTGCCT (site TCTTTACCTAG)", "recombinant barcode read abundance (log10)": 0.0534}, {"sequence": "GCTTTGCCTTGGGTTCTAACCTGTTGCCT (site ACTTTCCCTAG)", "recombinant barcode read abundance (log10)": 0.0475}, {"sequence": "GCTTTGCCTTGGGTTCTAACCTGTTGCCT (site GCTTTGCCTAG)", "recombinant barcode read abundance (log10)": 0.409}, {"sequence": "GGAACGTCTTGGGTTCTAACCTGTTGCTT (site GGAACCTCTAA)", "recombinant barcode read abundance (log10)": 0.0353}, {"sequence": "GGAACGTCTTGGGTTCTAACCTGTTGCTT (site GGAACGTCTAA)", "recombinant barcode read abundance (log10)": 1.06}, {"sequence": "GGAACTACTTGGGTTCTAACCTGTTGCAC (site GGAACTACTGT)", "recombinant barcode read abundance (log10)": 0.838}, {"sequence": "GGAACTACTTGGGTTCTAACCTGTTGCAC (site TTGCTAGCTCC)", "recombinant barcode read abundance (log10)": 0.114}, {"sequence": "GGAAGCCCTTGGGTTCTAACCTGTTGCTA (site AACTAAGCTAG)", "recombinant barcode read abundance (log10)": 0.0242}, {"sequence": "GGAAGCCCTTGGGTTCTAACCTGTTGCTA (site GGAAGCCCTTA)", "recombinant barcode read abundance (log10)": 0.694}, {"sequence": "GGAAGTTCTTGGGTTCTAACCTGTTGCCT (site GAAAGTTCTAG)", "recombinant barcode read abundance (log10)": 0.0496}, {"sequence": "GGAAGTTCTTGGGTTCTAACCTGTTGCCT (site GCAAGTTCTAG)", "recombinant barcode read abundance (log10)": 0.0862}, {"sequence": "GGAAGTTCTTGGGTTCTAACCTGTTGCCT (site GGAAGTTCTAG)", "recombinant barcode read abundance (log10)": 0.732}, {"sequence": "GGAAGTTCTTGGGTTCTAACCTGTTGCCT (site GTAAGTTCTAG)", "recombinant barcode read abundance (log10)": 0.754}, {"sequence": "GGAATACCTTGGGTTCTAACCTGTTGCCT (site GGAATACCTAG)", "recombinant barcode read abundance (log10)": 1.36}, {"sequence": "GGAATACCTTGGGTTCTAACCTGTTGCCT (site GGAATCCCTAG)", "recombinant barcode read abundance (log10)": 0.157}, {"sequence": "GGAATACCTTGGGTTCTAACCTGTTGCCT (site GGAATGCCTAG)", "recombinant barcode read abundance (log10)": 0.0994}, {"sequence": "GGAATACCTTGGGTTCTAACCTGTTGCCT (site GGAATTCCTAG)", "recombinant barcode read abundance (log10)": 0.0368}, {"sequence": "GGAATGCCTTGGGTTCTAACCTGTTGCCT (site GGAATACCTAG)", "recombinant barcode read abundance (log10)": 0.79}, {"sequence": "GGAATGCCTTGGGTTCTAACCTGTTGCCT (site GGAATCCCTAG)", "recombinant barcode read abundance (log10)": 0.0574}, {"sequence": "GGAATGCCTTGGGTTCTAACCTGTTGCCT (site GGAATGCCTAG)", "recombinant barcode read abundance (log10)": 0.975}]}]}
